Key:
[1] = molecular target: Ephrin type-A receptor 5 (Homo sapiens) (UniProt P54756); experiment: Residual activity of EPHA5 at 1 uM by microplate scintillation counting
[2] = molecular target: Serine/threonine-protein kinase MARK1 (Homo sapiens) (UniProt Q9P0L2); experiment: Residual activity of MARK1 at 0.1 uM by microplate scintillation counting
[3] = molecular target: Protein kinase C alpha type (Homo sapiens) (UniProt P17252); experiment: Residual activity of PKCalpha at 1 uM by microplate scintillation counting
[4] = molecular target: SRSF protein kinase 1 (Homo sapiens) (UniProt Q96SB4); experiment: Residual activity of SRPK1 at 0.1 uM by microplate scintillation counting
Sequence of SRSF protein kinase 1 (Homo sapiens) (Q96SB4 whole entry): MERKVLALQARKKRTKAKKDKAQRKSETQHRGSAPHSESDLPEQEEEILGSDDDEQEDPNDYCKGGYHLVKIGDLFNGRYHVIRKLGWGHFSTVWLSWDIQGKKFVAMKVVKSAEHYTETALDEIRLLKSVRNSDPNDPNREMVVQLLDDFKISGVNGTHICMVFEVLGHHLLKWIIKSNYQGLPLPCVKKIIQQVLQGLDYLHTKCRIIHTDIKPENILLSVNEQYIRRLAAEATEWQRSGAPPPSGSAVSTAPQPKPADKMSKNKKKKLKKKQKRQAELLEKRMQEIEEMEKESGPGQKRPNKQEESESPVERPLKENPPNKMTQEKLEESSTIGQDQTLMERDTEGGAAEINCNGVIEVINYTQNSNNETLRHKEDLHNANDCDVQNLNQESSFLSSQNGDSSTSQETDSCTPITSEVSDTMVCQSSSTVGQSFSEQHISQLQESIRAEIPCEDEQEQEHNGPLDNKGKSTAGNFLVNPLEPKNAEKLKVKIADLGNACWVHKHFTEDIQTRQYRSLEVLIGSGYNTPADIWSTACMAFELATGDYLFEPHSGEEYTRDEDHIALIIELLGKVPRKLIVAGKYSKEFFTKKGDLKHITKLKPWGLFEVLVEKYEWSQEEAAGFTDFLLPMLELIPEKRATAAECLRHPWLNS

[5] = molecular target: T1, Activin receptor type-1B (Homo sapiens) (UniProt P36896); experiment: Residual activity of ACVR1B at 0.1 uM by microplate scintillation counting
T1 sequence (whole entry): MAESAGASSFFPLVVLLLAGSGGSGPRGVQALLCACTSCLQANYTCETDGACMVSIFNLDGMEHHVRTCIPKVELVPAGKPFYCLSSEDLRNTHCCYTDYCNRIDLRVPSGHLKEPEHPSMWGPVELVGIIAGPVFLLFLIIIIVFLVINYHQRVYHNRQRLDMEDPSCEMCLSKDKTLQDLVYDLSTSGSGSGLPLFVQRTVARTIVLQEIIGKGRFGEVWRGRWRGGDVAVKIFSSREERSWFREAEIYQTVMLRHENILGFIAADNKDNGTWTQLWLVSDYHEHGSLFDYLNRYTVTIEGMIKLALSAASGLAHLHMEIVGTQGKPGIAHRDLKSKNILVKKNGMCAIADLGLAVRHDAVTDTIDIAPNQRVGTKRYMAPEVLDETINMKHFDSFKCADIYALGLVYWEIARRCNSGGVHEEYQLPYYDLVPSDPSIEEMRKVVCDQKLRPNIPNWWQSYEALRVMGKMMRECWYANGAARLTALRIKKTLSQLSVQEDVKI

[6] = molecular target: Serine/threonine-protein kinase PAK 4 (Homo sapiens) (UniProt O96013); experiment: Residual activity of PAK4 at 1 uM by microplate scintillation counting
[7] = molecular target: T2, Cytoplasmic tyrosine-protein kinase BMX (Homo sapiens) (UniProt P51813); experiment: Residual activity of BMX at 0.1 uM by microplate scintillation counting
T2 sequence (whole entry): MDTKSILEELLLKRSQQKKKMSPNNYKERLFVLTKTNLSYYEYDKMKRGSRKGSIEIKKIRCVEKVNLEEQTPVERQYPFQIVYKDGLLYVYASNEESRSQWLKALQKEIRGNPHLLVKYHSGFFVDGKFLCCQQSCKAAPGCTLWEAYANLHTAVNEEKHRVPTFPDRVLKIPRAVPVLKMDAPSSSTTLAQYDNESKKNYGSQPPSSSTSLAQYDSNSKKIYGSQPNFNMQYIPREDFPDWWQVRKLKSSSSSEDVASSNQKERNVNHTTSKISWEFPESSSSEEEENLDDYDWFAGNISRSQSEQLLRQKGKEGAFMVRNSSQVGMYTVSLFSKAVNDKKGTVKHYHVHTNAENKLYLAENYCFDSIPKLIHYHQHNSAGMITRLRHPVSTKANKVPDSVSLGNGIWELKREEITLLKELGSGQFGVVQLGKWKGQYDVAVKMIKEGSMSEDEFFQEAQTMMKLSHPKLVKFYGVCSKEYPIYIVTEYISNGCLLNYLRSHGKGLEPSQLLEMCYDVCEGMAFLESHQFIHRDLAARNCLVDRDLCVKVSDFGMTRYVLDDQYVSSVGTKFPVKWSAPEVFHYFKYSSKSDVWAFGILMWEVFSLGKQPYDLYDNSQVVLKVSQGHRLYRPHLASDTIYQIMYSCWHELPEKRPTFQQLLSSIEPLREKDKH

[8] = molecular target: Serine/threonine-protein kinase MRCK beta (Homo sapiens) (UniProt Q9Y5S2); experiment: Residual activity of CDC42BPB at 0.1 uM by microplate scintillation counting
[9] = molecular target: Focal adhesion kinase 1 (Homo sapiens) (UniProt Q05397); experiment: Residual activity of FAK at 10 uM by microplate scintillation counting
Sequence of Focal adhesion kinase 1 (Homo sapiens) (Q05397 2-1052 limits assumed): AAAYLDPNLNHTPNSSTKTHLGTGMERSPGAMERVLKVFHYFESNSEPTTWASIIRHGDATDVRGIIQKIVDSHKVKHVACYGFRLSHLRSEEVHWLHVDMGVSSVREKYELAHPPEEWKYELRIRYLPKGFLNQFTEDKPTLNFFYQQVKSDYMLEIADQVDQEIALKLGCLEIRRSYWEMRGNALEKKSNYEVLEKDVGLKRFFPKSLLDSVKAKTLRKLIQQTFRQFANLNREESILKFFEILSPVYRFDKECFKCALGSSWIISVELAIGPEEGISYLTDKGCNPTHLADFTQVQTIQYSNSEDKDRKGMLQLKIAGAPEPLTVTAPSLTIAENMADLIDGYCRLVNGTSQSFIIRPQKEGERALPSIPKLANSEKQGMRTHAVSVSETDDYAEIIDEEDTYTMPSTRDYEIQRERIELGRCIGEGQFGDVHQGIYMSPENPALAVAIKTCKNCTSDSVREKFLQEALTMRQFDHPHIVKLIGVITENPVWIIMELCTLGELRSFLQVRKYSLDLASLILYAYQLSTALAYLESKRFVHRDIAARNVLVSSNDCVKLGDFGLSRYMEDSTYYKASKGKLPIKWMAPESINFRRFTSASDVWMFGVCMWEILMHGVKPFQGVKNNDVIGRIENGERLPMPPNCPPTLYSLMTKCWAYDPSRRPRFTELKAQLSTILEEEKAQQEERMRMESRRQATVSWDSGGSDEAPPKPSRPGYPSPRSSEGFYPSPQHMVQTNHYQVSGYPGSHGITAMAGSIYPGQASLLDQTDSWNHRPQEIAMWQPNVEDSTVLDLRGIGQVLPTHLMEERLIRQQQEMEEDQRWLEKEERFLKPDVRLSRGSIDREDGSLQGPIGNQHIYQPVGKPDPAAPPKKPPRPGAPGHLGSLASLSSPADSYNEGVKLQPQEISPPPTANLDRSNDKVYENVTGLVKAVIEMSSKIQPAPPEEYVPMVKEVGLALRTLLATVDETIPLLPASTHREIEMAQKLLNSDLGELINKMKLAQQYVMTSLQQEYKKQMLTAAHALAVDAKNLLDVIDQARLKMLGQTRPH

[10] = molecular target: Wee1-like protein kinase (Homo sapiens) (UniProt P30291); experiment: Residual activity of WEE1 at 0.1 uM by microplate scintillation counting
[11] = molecular target: Ribosomal protein S6 kinase alpha-6 (Homo sapiens) (UniProt Q9UK32); experiment: Residual activity of RPS6KA6 at 1 uM by microplate scintillation counting
Sequence of Ribosomal protein S6 kinase alpha-6 (Homo sapiens) (Q9UK32 whole entry): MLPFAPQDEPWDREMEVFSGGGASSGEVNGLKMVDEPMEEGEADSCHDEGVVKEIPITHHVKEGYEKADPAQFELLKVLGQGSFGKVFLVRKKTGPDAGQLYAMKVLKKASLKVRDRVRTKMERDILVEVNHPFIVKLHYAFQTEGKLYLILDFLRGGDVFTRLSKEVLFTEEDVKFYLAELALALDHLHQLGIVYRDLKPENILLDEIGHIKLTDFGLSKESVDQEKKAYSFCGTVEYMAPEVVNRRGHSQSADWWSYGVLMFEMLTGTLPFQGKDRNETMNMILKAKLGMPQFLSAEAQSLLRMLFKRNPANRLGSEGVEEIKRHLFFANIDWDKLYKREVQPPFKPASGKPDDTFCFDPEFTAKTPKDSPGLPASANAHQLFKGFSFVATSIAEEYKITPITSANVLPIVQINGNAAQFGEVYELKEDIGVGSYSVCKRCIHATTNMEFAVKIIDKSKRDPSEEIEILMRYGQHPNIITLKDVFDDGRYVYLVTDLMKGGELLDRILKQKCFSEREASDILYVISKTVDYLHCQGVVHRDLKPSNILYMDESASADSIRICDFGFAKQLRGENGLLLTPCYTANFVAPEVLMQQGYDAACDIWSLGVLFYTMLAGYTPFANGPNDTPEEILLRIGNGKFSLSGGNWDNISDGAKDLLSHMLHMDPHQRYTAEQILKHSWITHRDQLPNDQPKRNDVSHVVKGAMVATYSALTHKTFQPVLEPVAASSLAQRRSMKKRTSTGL

[12] = molecular target: Macrophage-stimulating protein receptor (Homo sapiens) (UniProt Q04912); experiment: Residual activity of RON at 10 uM by microplate scintillation counting
[13] = molecular target: T3, Tyrosine-protein kinase ZAP-70 (Homo sapiens) (UniProt P43403); experiment: Residual activity of ZAP70 at 10 uM by microplate scintillation counting
T3 sequence (whole entry): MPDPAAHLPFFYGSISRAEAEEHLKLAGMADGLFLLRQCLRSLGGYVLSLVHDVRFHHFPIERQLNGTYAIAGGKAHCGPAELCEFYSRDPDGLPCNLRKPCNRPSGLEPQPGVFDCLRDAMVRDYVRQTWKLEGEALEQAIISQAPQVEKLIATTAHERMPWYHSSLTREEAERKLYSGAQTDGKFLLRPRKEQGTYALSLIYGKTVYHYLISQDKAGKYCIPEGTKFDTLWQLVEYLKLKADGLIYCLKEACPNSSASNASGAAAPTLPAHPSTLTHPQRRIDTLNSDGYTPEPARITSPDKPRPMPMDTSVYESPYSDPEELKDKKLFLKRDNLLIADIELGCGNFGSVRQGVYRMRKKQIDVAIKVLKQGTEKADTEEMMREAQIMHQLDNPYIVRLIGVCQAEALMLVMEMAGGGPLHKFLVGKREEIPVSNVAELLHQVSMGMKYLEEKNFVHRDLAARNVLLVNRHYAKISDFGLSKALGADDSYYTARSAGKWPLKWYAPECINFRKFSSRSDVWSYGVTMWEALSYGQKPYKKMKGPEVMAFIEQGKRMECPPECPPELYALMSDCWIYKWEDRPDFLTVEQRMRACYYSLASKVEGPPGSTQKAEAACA

[14] = molecular target: 5'-AMP-activated protein kinase catalytic subunit alpha-1 (Homo sapiens) (UniProt Q13131); experiment: Residual activity of AMPK-alpha1 fl at 1 uM by microplate scintillation counting
Sequence of 5'-AMP-activated protein kinase catalytic subunit alpha-1 (Homo sapiens) (Q13131 whole entry, looked up): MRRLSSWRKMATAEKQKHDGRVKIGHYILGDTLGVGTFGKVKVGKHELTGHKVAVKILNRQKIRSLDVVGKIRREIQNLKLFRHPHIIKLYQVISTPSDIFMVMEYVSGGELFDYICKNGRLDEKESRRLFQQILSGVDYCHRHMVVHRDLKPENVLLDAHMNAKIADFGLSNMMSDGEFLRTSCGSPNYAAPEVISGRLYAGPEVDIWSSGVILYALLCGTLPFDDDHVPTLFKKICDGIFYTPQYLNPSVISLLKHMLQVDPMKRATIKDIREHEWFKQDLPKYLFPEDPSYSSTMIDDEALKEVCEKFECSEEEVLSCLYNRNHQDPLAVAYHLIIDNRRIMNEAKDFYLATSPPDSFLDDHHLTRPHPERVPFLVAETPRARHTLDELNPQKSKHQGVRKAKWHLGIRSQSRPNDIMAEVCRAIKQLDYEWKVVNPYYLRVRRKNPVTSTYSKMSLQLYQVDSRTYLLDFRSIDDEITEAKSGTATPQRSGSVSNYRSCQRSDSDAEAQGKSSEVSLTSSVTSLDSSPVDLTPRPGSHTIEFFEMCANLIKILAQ

[15] = molecular target: Fibroblast growth factor receptor 3 (Homo sapiens) (UniProt P22607); experiment: Residual activity of FGFR3 at 1 uM by microplate scintillation counting

Sequence of Serine/threonine-protein kinase MARK1 (Homo sapiens) (Q9P0L2 whole entry, looked up): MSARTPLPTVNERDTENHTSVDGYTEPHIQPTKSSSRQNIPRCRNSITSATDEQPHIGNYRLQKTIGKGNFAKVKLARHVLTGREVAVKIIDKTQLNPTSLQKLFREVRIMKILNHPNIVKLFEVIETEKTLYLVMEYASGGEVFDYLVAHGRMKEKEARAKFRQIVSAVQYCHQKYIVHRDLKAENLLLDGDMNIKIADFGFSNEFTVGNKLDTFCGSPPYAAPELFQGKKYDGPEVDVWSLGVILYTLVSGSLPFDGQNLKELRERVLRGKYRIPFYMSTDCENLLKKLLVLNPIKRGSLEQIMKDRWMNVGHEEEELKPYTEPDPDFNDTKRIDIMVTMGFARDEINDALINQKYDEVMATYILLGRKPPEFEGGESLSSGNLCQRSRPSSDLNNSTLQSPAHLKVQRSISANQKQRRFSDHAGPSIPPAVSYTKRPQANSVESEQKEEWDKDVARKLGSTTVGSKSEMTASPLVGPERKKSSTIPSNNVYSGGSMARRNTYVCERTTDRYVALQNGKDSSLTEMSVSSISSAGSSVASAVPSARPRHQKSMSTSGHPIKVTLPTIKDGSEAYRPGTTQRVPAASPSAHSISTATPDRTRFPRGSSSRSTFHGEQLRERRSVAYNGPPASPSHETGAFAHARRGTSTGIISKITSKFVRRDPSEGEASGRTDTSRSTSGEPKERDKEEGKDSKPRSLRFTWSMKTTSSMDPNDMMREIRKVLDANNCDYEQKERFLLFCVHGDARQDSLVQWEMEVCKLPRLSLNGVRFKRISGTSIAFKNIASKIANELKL
Sequence of Ephrin type-A receptor 5 (Homo sapiens) (P54756 whole entry): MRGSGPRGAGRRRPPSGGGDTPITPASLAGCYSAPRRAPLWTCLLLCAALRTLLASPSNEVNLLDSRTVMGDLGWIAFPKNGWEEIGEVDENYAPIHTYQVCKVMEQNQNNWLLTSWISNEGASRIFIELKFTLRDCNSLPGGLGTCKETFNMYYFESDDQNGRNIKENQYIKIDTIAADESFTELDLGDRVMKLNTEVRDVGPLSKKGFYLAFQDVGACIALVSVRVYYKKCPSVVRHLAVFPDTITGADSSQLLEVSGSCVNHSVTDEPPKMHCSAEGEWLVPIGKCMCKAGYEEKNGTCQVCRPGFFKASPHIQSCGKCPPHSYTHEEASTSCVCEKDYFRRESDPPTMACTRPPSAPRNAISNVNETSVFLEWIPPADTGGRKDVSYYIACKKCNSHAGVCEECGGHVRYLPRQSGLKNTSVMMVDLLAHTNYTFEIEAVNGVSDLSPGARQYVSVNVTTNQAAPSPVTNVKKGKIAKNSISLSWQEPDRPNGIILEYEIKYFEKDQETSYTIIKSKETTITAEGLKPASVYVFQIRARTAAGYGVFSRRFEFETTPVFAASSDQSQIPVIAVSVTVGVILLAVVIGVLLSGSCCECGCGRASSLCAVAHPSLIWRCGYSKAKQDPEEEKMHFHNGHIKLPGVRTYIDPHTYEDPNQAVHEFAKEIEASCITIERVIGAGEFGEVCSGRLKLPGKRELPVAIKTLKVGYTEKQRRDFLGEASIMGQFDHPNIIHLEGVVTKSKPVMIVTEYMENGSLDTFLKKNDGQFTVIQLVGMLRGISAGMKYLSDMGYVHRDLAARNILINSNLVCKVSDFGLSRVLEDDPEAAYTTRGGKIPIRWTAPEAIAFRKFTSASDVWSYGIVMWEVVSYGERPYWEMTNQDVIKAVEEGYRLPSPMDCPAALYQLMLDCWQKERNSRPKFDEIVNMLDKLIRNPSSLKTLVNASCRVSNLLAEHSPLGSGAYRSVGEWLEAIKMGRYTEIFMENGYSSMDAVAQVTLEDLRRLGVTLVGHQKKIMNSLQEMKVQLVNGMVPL

residual activity [1]	residual activity [2]	residual activity [3]	residual activity [4]	residual activity [5]	residual activity [6]	residual activity [7]	residual activity [8]	residual activity [9]	residual activity [10]	residual activity [11]	residual activity [12]	residual activity [13]	residual activity [14]	residual activity [15]	Compound
119%	90%	128%	103%	100%	112%	94%	87%	93%	100%	95%	53%	166%	91%	98%	COc1cc2c(Oc3ccc(-c4nc5ccccc5s4)cc3)ncnc2cc1OCCCN1CCCC1
95%	91%	98%	91%	97%	99%	116%	83%	84%	98%	97%	55%	230%	77%	88%	COc1cc2c(Oc3ccc(-c4nc5ccccc5s4)cc3F)ncnc2cc1OCCCN1CCN(C)CC1
103%	98%	99%	96%	102%	105%	117%	120%	93%	118%	101%	76%	341%	76%	90%	COc1cc2c(Oc3ccc(-c4nc5ccccc5s4)cc3)ncnc2cc1OCCCN1CCN(C)CC1

From ChEMBL document CHEMBL1152560, “Substituted 2-arylbenzothiazoles as kinase inhibitors: hit-to-lead optimization” (Bioorg Med Chem, 2009)
